The subject of one assay is A2058. The experiment in a line: Combination effect by median-effect method, WST-8 assay. In kind it is cell-based, Human. As to conditions: in combination with STX-1159, 72 hours. An excerpt: (§1) NCI-H2228, NCI-H1975, SK-BR-3, Hep3B, MCF-7, Caov-3, A2058, K562 and SUP-B15 were purchased from American Type Culture Collection, SAS and HuH-7 were purchased from National Institutes of Biomedical Innovation, Health and Nutrition, and K1, FTC-133 and Ishikawa were purchased European Collection of Authenticated Cell Cultures. […] Fetal bovine serum (hereinafter, abbreviated as FBS) and MCDB 105 culture medium were purchased from Sigma Aldrich (Cat. Nos. 172012 and 117-500), and RMPI1640 culture medium, DMEM medium, Ham's F-12 medium, MEM medium and IMDM culture medium were purchased Thermo Fisher Scientific (Cat. Nos. A1049101, 11995-065, 11765-054, 11095-080 and 12440-053).
(§2) The agents were singly added one day after the cells were inoculated. […] The absorbance of water-soluble formazan generated by enzymatic activity of mitochondria in cells was measured at 450 nm using a microplate reader (Molecular Devices, Model: SpectraMax Plus). This was evaluated as the viable cell count to calculate a 50% cell growth inhibitory concentration (hereinafter, abbreviated as IC50). The reference dose of each agent was set based on IC50 (Table 3).
(§3) One day after the cells were inoculated, for single groups, STX-1159 and the agents were each added so as to be a final concentration which is ¼ times, ½ times, 1 time, 2 times or 4 times the reference dose, and for combination groups, STX-1159 and the agents were added so as to be a final concentration where STX-1159 and the agents combined were each ¼ times, ½ times, 1 time, 2 times or 4 times the reference dose. […] The fraction affected (hereinafter, abbreviated as fa) was calculated from the following expression:
(§4) fa=1−(viable cell count in agent exposure group)/(viable cell count in control group).
(§5) By a median-effect method using combination effect analyzing software CalcuSyn (HULINKS), the combination index (hereinafter, abbreviated as CI) was calculated from fa obtained when STX-1159 and the agents were exposed alone or in combination. Evaluation of the combination effect was based on grading by CI in Table 4. In calculation of CI, the average of the values from two or more experiments was employed.
(Tetrazolium assays rely on reduction of a dye to a coloured formazan, in cell work by metabolically active cells.)
As for `CC(=O)Nc1cccc(-n2c(=O)n(C3CC3)c(=O)c3c(Nc4ccc(I)cc4F)n(C)c(=O)c(C)c32)c1` [Trametinib, trametinib], the CI was found to be 0.78 and the Combination effect result is given as “Moderate synergetic effect (0.7 < CI ≤ 0.85)”.
For `CC(C)(C)c1nc(-c2cccc(NS(=O)(=O)c3c(F)cccc3F)c2F)c(-c2ccnc(N)n2)s1` [Dabrafenib, dabrafenib], in that order: 0.73 and “Moderate synergetic effect (0.7 < CI ≤ 0.85)”.

The next assay has as its system NCI-H2228. The description is as above. As to conditions: in combination with STX-1159, 72 hours. In kind it is cell-based, Human.
Text: as §1, §2, §3, §4, §5
`Cc1cc(Nc2ncc(Cl)c(Nc3ccccc3S(=O)(=O)C(C)C)n2)c(OC(C)C)cc1C1CCNCC1` [Ceritinib, ceritinib]: the CI was found to be 0.34 and the Combination effect result is listed as “Synergetic effect (0.3 < CI ≤ 0.7)”.
The corresponding values for `C[C@@H](Oc1cc(-c2cnn(C3CCNCC3)c2)cnc1N)c1c(Cl)ccc(F)c1Cl` [Crizotinib] are 0.50 and “Synergetic effect (0.3 < CI ≤ 0.7)”.

Another assay has as its system K1. The description is as above. In kind it is cell-based, Human. To be noted: in combination with STX-1159, 72 hours.
Text: as §1, §2, §3, §4, §5
For the compound `COc1cc2c(Nc3ccc(Br)cc3F)ncnc2cc1OCC1CCN(C)CC1` [Vandetanib, vandetanib], the CI worked out at 0.69 and the Combination effect result is “Synergetic effect (0.3 < CI ≤ 0.7)”.

System in the next assay: not listed separately
The experiment in a line: Combination effect by median-effect method, summary over the cell lines of Example 1. Type of assay: cell-based. As to conditions: in combination with STX-1159; summary of Table 5. Here is the method:
The fraction affected (hereinafter, abbreviated as fa) was calculated from the following expression: fa=1-(viable cell count in agent exposure group)/(viable cell count in control group). […] Evaluation of the combination effect was based on grading by CI in Table 4. In calculation of CI, the average of the values from two or more experiments was employed.
In the case of `Cc1cc(Nc2ncc(Cl)c(Nc3ccccc3S(=O)(=O)C(C)C)n2)c(OC(C)C)cc1C1CCNCC1` [Ceritinib, ceritinib], the “combination effect by the median-effect method” value is “synergetic effect”.
On the same count and under the same terms, under `CC(C)(C)c1nc(-c2cccc(NS(=O)(=O)c3c(F)cccc3F)c2F)c(-c2ccnc(N)n2)s1` [Dabrafenib, dabrafenib] stands “synergetic effect”.
In the case of `C[C@@H](Oc1cc(-c2cnn(C3CCNCC3)c2)cnc1N)c1c(Cl)ccc(F)c1Cl` [Crizotinib], the “combination effect by the median-effect method” value is reported as “synergetic effect”.

In a further assay the test system is MDA-MB-231 cells. The experiment in a line: Combination effect of STX-1159 and mTOR inhibitor, WST-8 assay. Type of assay: cell-based, Human. To be noted: in combination with STX-1159, 48 hours. Here is the method: Human breast cell line MDA-MB-231 cells or MDA-MB-468 cells (in the case of rapamycin) were inoculated on a 96-well plate to 2.5×10^3/100 μL/well or 1.0×10^3/100 μL/well, and cultured under conditions of 5% CO2 and 37° C. To the control group was added DMSO, so as to be a final concentration of 0.05%. Subsequently, the cells were cultured under conditions of 5% CO2 and 37° C. for 48 hours, and the viable cell count was then evaluated by WST-8 assay. […] The absorbance of water-soluble formazan generated by enzymatic activity of mitochondria in cells was measured at 450 nm using a microplate reader (Molecular Devices, Model: SpectraMax Plus).
Human breast cell line MDA-MB-231 cells or MDA-MB-468 cells (in the case of rapamycin) were inoculated on a 96-well plate so as to be 2.5×10^3/100 μL/well or 1.0×10^3/100 μL/well, respectively. The cells were incubated in a CO2 incubator at 37° C. After 24 hours, the supernatant was discarded, and 80 μL of a culture medium for assay was added. […] The mixture was left standing in a CO2 incubator at 37° C. for 48 hours, the supernatant was then removed, and the mixture was washed once with 100 μL of PBS(−). A WST-8 solution diluted by 10 times with the medium for assay was added at 100 μL/well, and the absorbance was measured at a wavelength of 450 nm using a plate reader. CI was calculated from the measured value.
As to `Nc1ncnc2c1c(-c1cnc3[nH]ccc3c1)nn2C1CCCC1` [PP-121], the CI was 0.88 and the Combination effect result is on record as “Light synergetic effect (0.85 < CI ≤ 0.9)”.
`COc1ccc(-c2cc3c(C)nc(N)nc3n([C@H]3CC[C@H](OCCO)CC3)c2=O)cn1` [PF-04691502]: the CI stood at 0.73 and the Combination effect result is listed as “Moderate synergetic effect (0.7 < CI ≤ 0.85)”.
In the case of `COc1ncc(-c2ccc3nccc(-c4ccnnc4)c3c2)cc1NS(=O)(=O)c1ccc(F)cc1F` [GSK2126458], the CI amounted to 0.63 and the Combination effect result was “Synergetic effect (0.3 < CI ≤ 0.7)”.
Take `COc1ccc(-c2ccc3c(N4CCOCC4)nc(N4C[C@@H](C)O[C@@H](C)C4)nc3n2)cc1CO` [KU-0063794]: the CI is recorded as 0.36 and the Combination effect entry is “Synergetic effect (0.3 < CI ≤ 0.7)”.
For `CC(C)n1nc(-c2cc3cc(O)ccc3[nH]2)c2c(N)ncnc21` [PP242], in that order: 0.84 and “Moderate synergetic effect (0.7 < CI ≤ 0.85)”.
As for `COc1ccc(-c2ccc3c(N4CCOC[C@@H]4C)nc(N4CCOC[C@@H]4C)nc3n2)cc1CO` [AZD8055], the CI was 0.36 and the Combination effect entry is “Synergetic effect (0.3 < CI ≤ 0.7)”.
Take `O=C1NC(=O)/C(=C/c2ccc3nccc(-c4ccncc4)c3c2)S1` [GSK1059615]: the CI came to 0.64 and the Combination effect result is “Synergetic effect (0.3 < CI ≤ 0.7)”.
The corresponding values for `COc1cccc2cc(-c3nc([C@H]4CC[C@H](C(=O)O)CC4)n4ncnc(N)c34)[nH]c12` [OSI-027] are 0.49 and “Synergetic effect (0.3 < CI ≤ 0.7)”.
For `CN(C)C1CCN(C(=O)c2ccc(NC(=O)Nc3ccc(-c4nc(N5CCOCC5)nc(N5CCOCC5)n4)cc3)cc2)CC1` [PF-05212384(PKI-587)], in that order: 0.63 and “Synergetic effect (0.3 < CI ≤ 0.7)”.
With `CNC(=O)c1cccc(-c2ccc3c(N4CCOC[C@@H]4C)nc(N4CCOC[C@@H]4C)nc3n2)c1` [AZD2014], the CI was found to be 0.51 and the Combination effect entry is “Synergetic effect (0.3 < CI ≤ 0.7)”.
Regarding `CC(C)n1nc(-c2ccc3oc(N)nc3c2)c2c(N)ncnc21` [INK 128], the CI came out at 0.56 and the Combination effect result is “Synergetic effect (0.3 < CI ≤ 0.7)”.
For `COC(=O)Nc1ccc(-c2nc(N3CCOCC3)c3cnn(C4CCN(Cc5cccnc5)CC4)c3n2)cc1` [WYE-687], the CI was 0.85 and the Combination effect entry is given as “Moderate synergetic effect (0.7 < CI ≤ 0.85)”.
As for `Nc1ccc(-c2ccc3ncc4ccc(=O)n(-c5cccc(C(F)(F)F)c5)c4c3c2)cn1` [Torin 2], the CI worked out at 0.66 and the Combination effect result was “Synergetic effect (0.3 < CI ≤ 0.7)”.
As for `Oc1cccc(-c2nc(N3CCOCC3)c3oc4ncccc4c3n2)c1` [PI-103], the CI amounted to 0.60 and the Combination effect entry is given as “Synergetic effect (0.3 < CI ≤ 0.7)”.
For `CNC(=O)Nc1ccc(-c2nc(N3CC4CCC(C3)O4)c3cnn(C4CCC5(CC4)OCCO5)c3n2)cc1` [WYE-125132], in that order: 0.40 and “Synergetic effect (0.3 < CI ≤ 0.7)”.
For `CCC(=O)N1CCN(c2ccc(-n3c(=O)ccc4cnc5ccc(-c6cnc7ccccc7c6)cc5c43)cc2C(F)(F)F)CC1` [Torin 1], in that order: 0.68 and “Synergetic effect (0.3 < CI ≤ 0.7)”.
With `c1cncc(CN2CCC(n3ncc4c(N5CCOCC5)nc(-c5ccc6[nH]ccc6c5)nc43)CC2)c1` [WAY-600], the CI stood at 0.64 and the Combination effect result is recorded as “Synergetic effect (0.3 < CI ≤ 0.7)”.
The corresponding values for `Cc1c(CN2CCN(C(=O)[C@H](C)O)CC2)sc2c(N3CCOCC3)nc(-c3cnc(N)nc3)nc12` [GDC-0980(RG7422)] are 0.86 and “Light synergetic effect (0.85 < CI ≤ 0.9)”.

The subject of a further assay is FTC-133.
Test: not given
As to conditions: in combination with STX-1159, 72 hours.
Text: as §1
The cells were inoculated on a 96-well plate to the density shown in Table 2, and were cultured under conditions of 5% CO2 and 37° C. The agents were singly added one day after the cells were inoculated. To the control group was added DMSO, so as to be a final concentration of 0.05%. Subsequently, the cells were cultured under conditions of 5% CO2 and 37° C. for the time shown in Table 2, and the number living cells was evaluated by WST-8 assay. That is, 10 μL of a WST-8 kit solution (Kishida Chemical Co., ltd, Cat. No. 260-96162) was added to each well, and the cells were cultured under conditions of 5% CO2 and 37° C. for 1 to 2 hours. The absorbance of water-soluble formazan generated by enzymatic activity of mitochondria in cells was measured at 450 nm using a microplate reader (Molecular Devices, Model: SpectraMax Plus). This was evaluated as the viable cell count to calculate a 50% cell growth inhibitory concentration (hereinafter, abbreviated as IC50).
The cells were inoculated on a 96-well plate so as to be the density shown in Table 2, and were cultured under conditions of 5% CO2 and 37° C. One day after the cells were inoculated, for single groups, STX-1159 and the agents were each added so as to be a final concentration which is ¼ times, ½ times, 1 time, 2 times or 4 times the reference dose, and for combination groups, STX-1159 and the agents were added so as to be a final concentration where STX-1159 and the agents combined were each ¼ times, ½ times, 1 time, 2 times or 4 times the reference dose. To the control group was added DMSO, so as to be a final concentration of 0.1%. Subsequently, the cells were cultured under conditions of 5% CO2 and 37° C. for the time shown in Table 2, and the number living cells was measured by WST-8 assay. The fraction affected (hereinafter, abbreviated as fa) was calculated from the following expression:
as §4, §5
On to `COc1cc2c(Nc3ccc(Br)cc3F)ncnc2cc1OCC1CCN(C)CC1` [Vandetanib, vandetanib], for which the CI is reported as 0.75 and the Combination effect result is “Moderate synergetic effect (0.7 < CI ≤ 0.85)”.

Values taken from patent US20220008409A1, “CANCER COMBINATION THERAPY USING QUINOLINE CARBOXAMIDE DERIVATIVE” (KABUSHIKI KAISHA YAKULT HONSHA, priority 2018, published 2022).
